The record followed here is ChEMBL document CHEMBL3994622, “Design and synthesis of new RAF kinase-inhibiting antiproliferative quinoline derivatives. Part 2: Diarylurea derivatives” (Eur J Med Chem, 2017).

What all share (assay type): functional
The subject of one assay is SF-268. As to the kind of experiment: Growth inhibition of human SF268 cells assessed as cell growth at 100 uM incubated for 48 hrs by sulforhodamine B assay relative to control. Particulars: SF-268, 48 h, read-out: Activity. In general terms: In SRB staining, fixed cells bind dye roughly in proportion to their protein.
In a further assay the test system is NCI-H23. As to the kind of experiment: Growth inhibition of human NCI-H23 cells assessed as cell growth at 10 uM incubated for 48 hrs by sulforhodamine B assay relative to control. Particulars: NCI-H23, 48 h, read-out: Activity.
Assay [1] has as its system NCI/ADR-RES. Nature of the assay: Growth inhibition of human NCI/ADR-RES cells assessed as cell growth at 10 uM incubated for 48 hrs by sulforhodamine B assay relative to control. Particulars: read-out: Activity.
The next assay concerns HOP-92. Nature of the assay: Growth inhibition of human HOP92 cells assessed as cell growth at 0.01 uM incubated for 48 hrs by sulforhodamine B assay relative to control. Conditions: HOP-92, 48 h, read-out: Activity.
For another assay, the system named is IGROV-1. As to the kind of experiment: Growth inhibition of human IGROV1 cells assessed as cell growth at 100 uM incubated for 48 hrs by sulforhodamine B assay relative to control. Particulars: IGROV-1, 48 h, read-out: Activity.
Assay [2] has as its system UACC-62. As to the kind of experiment: Growth inhibition of human UACC62 cells assessed as cell growth at 3 uM incubated for 48 hrs by sulforhodamine B assay relative to control. Conditions: UACC-62, 48 h, read-out: Activity.
Assay [3] concerns RPMI-8226. Nature of the assay: Growth inhibition of human RPMI8226 cells assessed as cell growth at 3 uM incubated for 48 hrs by sulforhodamine B assay relative to control. Conditions: RPMI-8226, 48 h, read-out: Activity.
Assay [4] concerns MDA-MB-435. Nature of the assay: Growth inhibition of human MDA-MB-435 cells assessed as cell growth at 0.3 uM incubated for 48 hrs by sulforhodamine B assay relative to control. Conditions: MDA-MB-435, 48 h, read-out: Activity.
A further assay deals with SNB-19. Nature of the assay: Growth inhibition of human SNB19 cells assessed as cell growth at 3 uM incubated for 48 hrs by sulforhodamine B assay relative to control. Particulars: SNB-19, 48 h, read-out: Activity.
The test system of assay [5] is RPMI-8226. Nature of the assay: Growth inhibition of human RPMI8226 cells assessed as cell growth at 0.03 uM incubated for 48 hrs by sulforhodamine B assay relative to control. Particulars: RPMI-8226, 48 h, read-out: Activity.
The subject of assay [6] is MOLT-4. As to the kind of experiment: Growth inhibition of human MOLT4 cells assessed as cell growth at 0.003 uM incubated for 48 hrs by sulforhodamine B assay relative to control. Particulars: MOLT-4, 48 h, read-out: Activity.
In another assay the test system is HL-60(TB). As to the kind of experiment: Growth inhibition of human HL-60(TB) cells assessed as cell growth at 0.003 uM incubated for 48 hrs by sulforhodamine B assay relative to control. Particulars: HL-60, 48 h, read-out: Activity.
Assay [7] deals with HOP-62. Nature of the assay: Growth inhibition of human HOP62 cells assessed as cell growth at 0.5 uM incubated for 48 hrs by sulforhodamine B assay relative to control. Conditions: HOP-62, 48 h, read-out: Activity.
For another assay, the system named is UO-31. Nature of the assay: Growth inhibition of human UO31 cells assessed as cell growth at 0.5 uM incubated for 48 hrs by sulforhodamine B assay relative to control. Particulars: UO-31, 48 h, read-out: Activity.
In assay [8] the test system is MDA-MB-231. As to the kind of experiment: Growth inhibition of human MDA-MB-231 cells assessed as cell growth at 5 uM incubated for 48 hrs by sulforhodamine B assay relative to control. Conditions: MDA-MB-231, 48 h, read-out: Activity.
Assay [9] has as its system MDA-MB-231. As to the kind of experiment: Growth inhibition of human MDA-MB-231 cells assessed as cell growth at 0.05 uM incubated for 48 hrs by sulforhodamine B assay relative to control. Particulars: MDA-MB-231, 48 h, read-out: Activity.
Assay [10] has as its system NCI-H460. As to the kind of experiment: Growth inhibition of human NCI-H460 cells assessed as cell growth at 5 uM incubated for 48 hrs by sulforhodamine B assay relative to control. Conditions: NCI-H460, 48 h, read-out: Activity.
The next assay relates to SK-OV-3. Nature of the assay: Growth inhibition of human SKOV3 cells assessed as cell growth at 50 uM incubated for 48 hrs by sulforhodamine B assay relative to control. Conditions: SK-OV-3, 48 h, read-out: Activity.
Another assay deals with SR. As to the kind of experiment: Growth inhibition of human SR cells assessed as cell growth at 50 uM incubated for 48 hrs by sulforhodamine B assay relative to control. Conditions: read-out: Activity.
The next assay concerns SF-295. Nature of the assay: Growth inhibition of human SF295 cells assessed as cell growth at 0.005 uM incubated for 48 hrs by sulforhodamine B assay relative to control. Particulars: SF-295, 48 h, read-out: Activity.
The subject of assay [11] is NCI/ADR-RES. As to the kind of experiment: Growth inhibition of human NCI/ADR-RES cells assessed as cell growth at 0.005 uM incubated for 48 hrs by sulforhodamine B assay relative to control. Conditions: read-out: Activity.
In assay [12] the test system is UACC-62. As to the kind of experiment: Growth inhibition of human UACC62 cells assessed as cell growth at 50 uM incubated for 48 hrs by sulforhodamine B assay relative to control. Particulars: UACC-62, 48 h, read-out: Activity.
The next assay relates to T47D. Nature of the assay: Growth inhibition of human T47D cells assessed as cell growth at 50 uM incubated for 48 hrs by sulforhodamine B assay relative to control. Conditions: read-out: Activity.
A further assay deals with ACHN. Nature of the assay: Growth inhibition of human ACHN cells assessed as cell growth at 0.5 uM incubated for 48 hrs by sulforhodamine B assay relative to control. Conditions: read-out: Activity.
A further assay has as its system U-251. Nature of the assay: Growth inhibition of human U251 cells assessed as cell growth at 0.05 uM incubated for 48 hrs by sulforhodamine B assay relative to control. Particulars: U-251, 48 h, read-out: Activity.
Another assay has as its system 786-0. Nature of the assay: Growth inhibition of human 786-0 cells assessed as cell growth at 0.05 uM incubated for 48 hrs by sulforhodamine B assay relative to control. Conditions: 786-0, 48 h, read-out: Activity.
The subject of the next assay is HCC 2998. As to the kind of experiment: Growth inhibition of human HCC2998 cells assessed as cell growth at 0.005 uM incubated for 48 hrs by sulforhodamine B assay relative to control. Particulars: HCC 2998, 48 h, read-out: Activity.
Assay [13] concerns MOLT-4. Nature of the assay: Growth inhibition of human MOLT4 cells assessed as cell growth at 0.05 uM incubated for 48 hrs by sulforhodamine B assay relative to control. Conditions: MOLT-4, 48 h, read-out: Activity.
In assay [14] the test system is RPMI-8226. Nature of the assay: Growth inhibition of human RPMI8226 cells assessed as cell growth at 0.5 uM incubated for 48 hrs by sulforhodamine B assay relative to control. Conditions: RPMI-8226, 48 h, read-out: Activity.
The test system of assay [15] is NCI-H460. Nature of the assay: Growth inhibition of human NCI-H460 cells assessed as cell growth at 0.5 uM incubated for 48 hrs by sulforhodamine B assay relative to control. Conditions: NCI-H460, 48 h, read-out: Activity.
A further assay has as its system OVCAR-8. Nature of the assay: Growth inhibition of human OVCAR8 cells assessed as cell growth at 0.005 uM incubated for 48 hrs by sulforhodamine B assay relative to control. Conditions: OVCAR-8, 48 h, read-out: Activity.
Assay [16] has as its system MDA-MB-435. As to the kind of experiment: Growth inhibition of human MDA-MB-435 cells assessed as cell growth at 5 uM incubated for 48 hrs by sulforhodamine B assay relative to control. Particulars: MDA-MB-435, 48 h, read-out: Activity.
In assay [17] the test system is HOP-62. As to the kind of experiment: Growth inhibition of human HOP62 cells assessed as cell growth at 30 uM incubated for 48 hrs by sulforhodamine B assay relative to control. Conditions: HOP-62, 48 h, read-out: Activity.
For the next assay, the system named is EKVX. Nature of the assay: Growth inhibition of human EKVX cells assessed as cell growth at 0.03 uM incubated for 48 hrs by sulforhodamine B assay relative to control. Particulars: read-out: Activity.

Each structure is given as a SMILES string.

Turning to `COc1cc2cc(Oc3ccc(NC(=O)Nc4cc(C(F)(F)F)cc(C(F)(F)F)c4)cc3)c(C)nc2cc1OC`, the growth at 100 µM in the assay with SF-268 was -71%; in the assay on IGROV-1, -63%. The growth at 10 µM was -32% with NCI-H23 and -54% in the assay with NCI/ADR-RES [1]. The growth at 0.01 µM with HOP-92 turned out to be 93%.
Turning to `Cc1nc2cc(O)c(O)cc2cc1Oc1ccc(NC(=O)Nc2ccc(Cl)c(Cl)c2)cc1`, the results for the growth at 3 µM in the assay on UACC-62 [2], with RPMI-8226 [3] and in the assay on SNB-19 were 91%, 92% and 96%, respectively. The growth at 0.3 µM in the assay with MDA-MB-435 [4] worked out at 90%. The growth at 0.03 µM in the assay with RPMI-8226 [5] came out at 98%. Moreover, the values for the growth at 0.003 µM in the assay with MOLT-4 [6] and in the assay with HL-60(TB) were 106% and 102%, respectively.
Take `COc1cc2cc(Oc3ccc(NC(=O)Nc4cccc(C(F)(F)F)c4)cc3)c(C)nc2cc1OC`: the growth at 0.5 µM in the assay on HOP-62 [7] was determined as 100%; in the assay with UO-31, 106%; with ACHN, 95%; in the assay on RPMI-8226 [14], 86%; in the assay on NCI-H460 [15] it was 96%. Also, the growth at 5 µM is -7% in the assay with MDA-MB-231 [8], 5% in the assay on NCI-H460 [10] and 13% in the assay on MDA-MB-435 [16]. Moreover, the growth at 0.05 µM amounted to 95% in the assay with MDA-MB-231 [9], 99% in the assay with U-251, 82% in the assay with 786-0 and 98% with MOLT-4 [13]. The growth at 50 µM with SK-OV-3 was -37%; in the assay with SR, -57%; in the assay with UACC-62 [12] it was -44%; with T47D, -49%. Besides, the growth at 0.005 µM in the assay with SF-295 was found to be 90%; with NCI/ADR-RES [11], 105%; with HCC 2998, 99%; with OVCAR-8, 101%.
Consider `COc1cc2cc(Oc3ccc(NC(=O)Nc4ccc(Cl)c(Cl)c4)cc3)c(C)nc2cc1OC`, for which the growth at 10 µM in the assay with NCI-H23 stood at 15%; in the assay on NCI/ADR-RES [1], 14%. In the assay with HOP-92, the growth at 0.01 µM is 95%. In addition, in the assay on IGROV-1, the growth at 100 µM is -15%.
`COc1cc2cc(Oc3ccc(NC(=O)Nc4ccc(Cl)c(C(F)(F)F)c4)cc3)c(C)nc2cc1OC`: the growth at 3 µM with UACC-62 [2] is 28%; in the assay on RPMI-8226 [3], -36%; in the assay with SNB-19, 24%. Besides, in the assay on MDA-MB-435 [4], the growth at 0.3 µM was 91%. The growth at 0.03 µM worked out at 98% in the assay with RPMI-8226 [5] and 97% in the assay with EKVX. The growth at 0.003 µM in the assay on MOLT-4 [6] is 102%; with HL-60(TB) it was 96%. In the assay on HOP-62 [17], the growth at 30 µM was -96%.
